Read-outs that look alike come from different tables or passages of the source.
Target: T1, factor Xa (Homo sapiens, UniProt P00742)
T1 construct: an F Xa reagent consisting of a lyophilized plasma fraction containing factor Xa; purchased Siemens Healthcare Diagnostics (Berichrom heparin assay, F Xa reagent); host or cells: plasma fraction
Experiment: Determination of the F Xa binding constant (Ki) of peptide aldehyde ligands, chromogenic assay with Berichrom heparin assay reagents, Dixon plot
Type: biochemical
Experimental: The kinetic data of the peptide aldehyde ligands were determined in chromogenic assay formats by measuring the rate of hydrolysis of chromogenic peptide substrates which compete with the peptide aldehyde ligands for binding to the active site of the particular enzyme, at various substrate concentrations and peptide aldehyde-ligand concentrations. The binding constant (Ki) was determined by a known method (Dixon, M., 1953, Biochem J, 55, 170-171).
The F Xa binding constant was determined using the reagents of the Berichrom® heparin assay from Siemens Healthcare Diagnostics. The Berichrom® heparin assay consists of: an F Xa reagent consisting of a lyophilized plasma fraction containing factor Xa, and additives such as Tris, NaCl, EDTA and preservatives, a chromogenic substrate reagent (Z-D-Leu-Gly-Arg-ANBA-methyl-amide), a dilution reagent for reconstitution, and a dextran sulfate reagent consisting of lyophilized dextran sulfate.
After reconstitution in 10 ml of dilution reagent, the dextran sulfate concentration is 0.02 g/l. The F Xa reagent is reconstituted with the reconstituted dextran sulfate reagent. The substrate reagent, after constitution with 2 ml of deionized water, contains 4 mmol/l Z-D-Leu-Gly-Arg-ANBA-methyl-amide. Dilutions of the substrate reagent were prepared with deionized water. The peptide aldehyde ligands prepared according to example 1 were dissolved in water and used as sample. The assays were carried out automatically in a BCS® XP coagulation analyzer (Siemens Healthcare Diagnostics, Marburg, Germany).
A reaction mix was mixed together as follows:
15 μl of sample (peptide aldehyde ligand B-r-G-R—H or B-f-P—R—H), […]
30 μl of substrate reagent (Z-D-Leu-Gly-Arg-ANBA-methyl-amide).
The reaction rate in mE/min was determined on the basis of the increase in optical density of the reaction mix at a wavelength of 405 nm. For this, the optical density of the reaction mixes was determined in a time interval from 10 to 70 seconds.

T1 sequence (P00742 235-488 limits assumed): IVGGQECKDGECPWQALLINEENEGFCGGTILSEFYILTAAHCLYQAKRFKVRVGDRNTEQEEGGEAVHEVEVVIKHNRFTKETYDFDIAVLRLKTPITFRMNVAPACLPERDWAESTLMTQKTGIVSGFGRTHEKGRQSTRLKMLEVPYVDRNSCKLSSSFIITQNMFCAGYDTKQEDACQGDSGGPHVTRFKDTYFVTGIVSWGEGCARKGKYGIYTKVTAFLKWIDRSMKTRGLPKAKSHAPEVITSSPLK
T1 sequence (P00742 41-179 partner limits assumed): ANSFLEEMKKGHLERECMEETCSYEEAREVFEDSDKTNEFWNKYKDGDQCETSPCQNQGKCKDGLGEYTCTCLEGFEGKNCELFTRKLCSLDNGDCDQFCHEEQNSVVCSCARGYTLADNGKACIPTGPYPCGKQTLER

Structure (SMILES): N=C(N)NCCC[C@@H](C=O)NC(=O)[C@@H]1CCCN1C(=O)[C@@H](Cc1ccccc1)NC(=O)CCC(=O)NCCCOCCOCCOCCCNC(=O)CCCC[C@@H]1SC[C@@H]2NC(=O)N[C@@H]21 [B-f-P-R-H, biotinyl-Ttds-D-Phe-Pro-Arg-H]
- 1/Reaction rate (CB-f-P-R-H 0.01019 μM, Csubstrate = 0.5 mM): 5.617 min/E
- 1/Reaction rate (CB-f-P-R-H 0.01019 μM, Csubstrate = 2 mM): 1.457 min/E
- 1/Reaction rate (CB-f-P-R-H 0.01019 μM, Csubstrate = 4 mM): 0.8217 min/E
- 1/Reaction rate (CB-f-P-R-H 0.02038 μM, Csubstrate = 0.5 mM): 5.565 min/E
- 1/Reaction rate (CB-f-P-R-H 0.02038 μM, Csubstrate = 2 mM): 1.457 min/E
- 1/Reaction rate (CB-f-P-R-H 0.02038 μM, Csubstrate = 4 mM): 0.8192 min/E
- 1/Reaction rate (CB-f-P-R-H 0.04076 μM, Csubstrate = 0.5 mM): 5.569 min/E
- 1/Reaction rate (CB-f-P-R-H 0.04076 μM, Csubstrate = 2 mM): 1.454 min/E
- 1/Reaction rate (CB-f-P-R-H 0.04076 μM, Csubstrate = 4 mM): 0.8174 min/E
- 1/Reaction rate (CB-f-P-R-H 0.08152 μM, Csubstrate = 0.5 mM): 5.572 min/E
- 1/Reaction rate (CB-f-P-R-H 0.08152 μM, Csubstrate = 2 mM): 1.467 min/E
- 1/Reaction rate (CB-f-P-R-H 0.08152 μM, Csubstrate = 4 mM): 0.8218 min/E
- 1/Reaction rate (CB-f-P-R-H 0.10190 μM, Csubstrate = 0.5 mM): 5.619 min/E
- 1/Reaction rate (CB-f-P-R-H 0.10190 μM, Csubstrate = 2 mM): 1.463 min/E
- 1/Reaction rate (CB-f-P-R-H 0.10190 μM, Csubstrate = 4 mM): 0.8156 min/E
- 1/Reaction rate (CB-f-P-R-H 0.16304 μM, Csubstrate = 0.5 mM): 5.675 min/E
- 1/Reaction rate (CB-f-P-R-H 0.16304 μM, Csubstrate = 2 mM): 1.485 min/E
- 1/Reaction rate (CB-f-P-R-H 0.16304 μM, Csubstrate = 4 mM): 0.8333 min/E
- 1/Reaction rate (CB-f-P-R-H 0.20380 μM, Csubstrate = 0.5 mM): 5.619 min/E
- 1/Reaction rate (CB-f-P-R-H 0.20380 μM, Csubstrate = 2 mM): 1.473 min/E
- 1/Reaction rate (CB-f-P-R-H 0.20380 μM, Csubstrate = 4 mM): 0.8238 min/E
- 1/Reaction rate (CB-f-P-R-H 0.32609 μM, Csubstrate = 0.5 mM): 5.69 min/E
- 1/Reaction rate (CB-f-P-R-H 0.32609 μM, Csubstrate = 2 mM): 1.486 min/E
- 1/Reaction rate (CB-f-P-R-H 0.32609 μM, Csubstrate = 4 mM): 0.832 min/E
- 1/Reaction rate (CB-f-P-R-H 0.40761 μM, Csubstrate = 0.5 mM): 5.694 min/E
- 1/Reaction rate (CB-f-P-R-H 0.40761 μM, Csubstrate = 2 mM): 1.489 min/E
- 1/Reaction rate (CB-f-P-R-H 0.40761 μM, Csubstrate = 4 mM): 0.8338 min/E
- 1/Reaction rate (CB-f-P-R-H 0.65217 μM, Csubstrate = 0.5 mM): 5.785 min/E
- 1/Reaction rate (CB-f-P-R-H 0.65217 μM, Csubstrate = 2 mM): 1.51 min/E
- 1/Reaction rate (CB-f-P-R-H 0.65217 μM, Csubstrate = 4 mM): 0.8514 min/E
- 1/Reaction rate (CB-f-P-R-H 0.81522 μM, Csubstrate = 0.5 mM): 5.868 min/E
- 1/Reaction rate (CB-f-P-R-H 0.81522 μM, Csubstrate = 2 mM): 1.521 min/E
- 1/Reaction rate (CB-f-P-R-H 0.81522 μM, Csubstrate = 4 mM): 0.8494 min/E
- 1/Reaction rate (CB-f-P-R-H 1.30435 μM, Csubstrate = 0.5 mM): 5.959 min/E
- 1/Reaction rate (CB-f-P-R-H 1.30435 μM, Csubstrate = 2 mM): 1.562 min/E
- 1/Reaction rate (CB-f-P-R-H 1.30435 μM, Csubstrate = 4 mM): 0.8735 min/E
- 1/Reaction rate (CB-f-P-R-H 1.63043 μM, Csubstrate = 0.5 mM): 6.263 min/E
- 1/Reaction rate (CB-f-P-R-H 1.63043 μM, Csubstrate = 2 mM): 1.591 min/E
- 1/Reaction rate (CB-f-P-R-H 1.63043 μM, Csubstrate = 4 mM): 0.9021 min/E
- 1/Reaction rate (CB-f-P-R-H 2.60870 μM, Csubstrate = 0.5 mM): 6.441 min/E
- 1/Reaction rate (CB-f-P-R-H 2.60870 μM, Csubstrate = 2 mM): 1.672 min/E
- 1/Reaction rate (CB-f-P-R-H 2.60870 μM, Csubstrate = 4 mM): 0.9317 min/E
- 1/Reaction rate (CB-f-P-R-H 3.26087 μM, Csubstrate = 0.5 mM): 6.663 min/E
- 1/Reaction rate (CB-f-P-R-H 3.26087 μM, Csubstrate = 2 mM): 1.715 min/E
- 1/Reaction rate (CB-f-P-R-H 3.26087 μM, Csubstrate = 4 mM): 0.9448 min/E
- 1/Reaction rate (CB-f-P-R-H 4.89130 μM, Csubstrate = 0.5 mM): 7.084 min/E
- 1/Reaction rate (CB-f-P-R-H 4.89130 μM, Csubstrate = 2 mM): 1.84 min/E
- 1/Reaction rate (CB-f-P-R-H 4.89130 μM, Csubstrate = 4 mM): 1.026 min/E
- 1/Reaction rate (CB-f-P-R-H 6.52174 μM, Csubstrate = 0.5 mM): 7.613 min/E
- 1/Reaction rate (CB-f-P-R-H 6.52174 μM, Csubstrate = 2 mM): 1.979 min/E
- 1/Reaction rate (CB-f-P-R-H 6.52174 μM, Csubstrate = 4 mM): 1.106 min/E
- 1/Reaction rate (CB-f-P-R-H 8.15217 μM, Csubstrate = 0.5 mM): 8.377 min/E
- 1/Reaction rate (CB-f-P-R-H 8.15217 μM, Csubstrate = 2 mM): 2.149 min/E
- 1/Reaction rate (CB-f-P-R-H 8.15217 μM, Csubstrate = 4 mM): 1.173 min/E
- 1/Reaction rate (CB-f-P-R-H 13.04348 μM, Csubstrate = 0.5 mM): 9.739 min/E
- 1/Reaction rate (CB-f-P-R-H 13.04348 μM, Csubstrate = 2 mM): 2.499 min/E
- 1/Reaction rate (CB-f-P-R-H 13.04348 μM, Csubstrate = 4 mM): 1.359 min/E
- Intersect of regression curve 1/reaction rate vs ligand concentration (Csubstrate 0.5 mM): 5.5934 min/E
- Slope of regression curve 1/reaction rate vs ligand concentration (Csubstrate 0.5 mM): 0.3216 min/E μM
- Intersect of regression curve 1/reaction rate vs ligand concentration (Csubstrate 2 mM): 1.4588 min/E
- Slope of regression curve 1/reaction rate vs ligand concentration (Csubstrate 2 mM): 0.0806 min/E μM
- Intersect of regression curve 1/reaction rate vs ligand concentration (Csubstrate 4 mM): 0.8202 min/E
- Slope of regression curve 1/reaction rate vs ligand concentration (Csubstrate 4 mM): 0.0421 min/E μM
- Ki (average of three Ki values, read-out: KiM average F Xa binding constant): 16.9 µM
- Ki (intersection of regression curves Csubstrate 2 and 0.5 mM, read-out: Ki2&3 F Xa binding constant): 17.2 µM
- Ki (intersection of regression curves Csubstrate 4 and 0.5 mM, read-out: Ki1&3 F Xa binding constant): 17.1 µM
- Ki (intersection of regression curves Csubstrate 4 and 2 mM, read-out: Ki1&2 F Xa binding constant): 16.6 µM
- binding of the peptide aldehyde with F Xa (reversible or irreversible) (intersections of regression curves not on the x axis): reversible
